Our source for the IC50 values is paper PMC12015381, “Target Agnostic Photoaffinity Labelling by Sulfonylhydrazones” (Angewandte Chemie (International Ed. in English), 2025).

Experiment [1] addresses T1, STAT5b (Signal transducer and activator of transcription 5b) (Homo sapiens, UniProt P51692).
T1 sequence (P51692 1-787): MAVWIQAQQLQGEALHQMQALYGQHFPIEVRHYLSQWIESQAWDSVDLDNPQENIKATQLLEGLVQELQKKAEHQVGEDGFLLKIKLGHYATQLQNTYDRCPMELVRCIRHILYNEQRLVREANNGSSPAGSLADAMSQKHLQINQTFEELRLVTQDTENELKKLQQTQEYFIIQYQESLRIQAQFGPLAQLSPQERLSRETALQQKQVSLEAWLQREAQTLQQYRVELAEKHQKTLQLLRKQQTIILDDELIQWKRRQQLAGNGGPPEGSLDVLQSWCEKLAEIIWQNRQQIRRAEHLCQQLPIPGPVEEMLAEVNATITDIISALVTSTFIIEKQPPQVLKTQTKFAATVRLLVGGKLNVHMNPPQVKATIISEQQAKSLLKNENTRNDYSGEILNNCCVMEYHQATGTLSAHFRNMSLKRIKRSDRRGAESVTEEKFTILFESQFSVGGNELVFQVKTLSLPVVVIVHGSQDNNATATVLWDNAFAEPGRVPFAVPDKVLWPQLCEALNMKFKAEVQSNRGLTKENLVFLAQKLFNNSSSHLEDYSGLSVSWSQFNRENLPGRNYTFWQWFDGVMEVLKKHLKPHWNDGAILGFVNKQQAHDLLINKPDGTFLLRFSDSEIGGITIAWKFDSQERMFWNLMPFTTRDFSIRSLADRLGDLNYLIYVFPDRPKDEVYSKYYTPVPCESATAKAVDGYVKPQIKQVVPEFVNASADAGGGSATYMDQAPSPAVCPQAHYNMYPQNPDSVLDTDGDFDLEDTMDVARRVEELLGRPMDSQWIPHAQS
In words: covalent photolabelling by tryptic digestion and LC-MS/MS; STAT5b inhibition assay with irradiation (no inhibition under […] without irradiation). It counts as binding.

Experiment [2] addresses acetylcholine esterase (AChE) (Electrophorus electricus, UniProt O42275). In words: biochemical enzyme inhibition assay after photoactivation at […] nm (no inhibition without irradiation); covalent labelling by enzymatic digestion and MS.

Sequence of acetylcholine esterase (AChE) (O42275 24-633): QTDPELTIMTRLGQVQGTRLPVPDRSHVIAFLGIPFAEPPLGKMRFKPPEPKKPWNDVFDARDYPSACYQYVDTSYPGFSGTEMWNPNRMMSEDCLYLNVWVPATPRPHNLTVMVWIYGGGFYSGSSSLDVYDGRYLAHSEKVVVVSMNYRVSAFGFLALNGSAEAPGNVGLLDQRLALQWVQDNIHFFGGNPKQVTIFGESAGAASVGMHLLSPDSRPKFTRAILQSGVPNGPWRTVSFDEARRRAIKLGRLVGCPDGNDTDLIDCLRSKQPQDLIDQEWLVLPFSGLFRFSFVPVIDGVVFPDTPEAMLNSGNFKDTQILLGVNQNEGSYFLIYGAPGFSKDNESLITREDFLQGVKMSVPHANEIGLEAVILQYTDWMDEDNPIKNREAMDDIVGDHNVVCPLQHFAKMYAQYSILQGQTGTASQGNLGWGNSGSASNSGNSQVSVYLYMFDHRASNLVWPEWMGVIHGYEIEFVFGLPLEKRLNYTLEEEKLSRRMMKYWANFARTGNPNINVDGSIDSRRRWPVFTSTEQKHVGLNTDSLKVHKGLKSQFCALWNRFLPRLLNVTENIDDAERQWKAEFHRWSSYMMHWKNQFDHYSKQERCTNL

As a reminder, the IC50 is the concentration at which inhibition is half-maximal. Consider `O=c1c(/C=N/NS(=O)(=O)c2cccnc2)coc2ccccc12` [compound 10, 10], for which the midpoint of inhibition in experiment [1], the IC50, lay at 24.1 µM. As for `COc1cc2c(cc1OC)C(=NNS(=O)(=O)c1ccc(C)cc1)C(CC1CCN(Cc3ccccc3)CC1)C2` (centres unmarked) [compound 12, donepezil-tosylhydrazone], in experiment [2], the midpoint of inhibition, the IC50, lay at 0.379 µM.
